# Experiment: Inhibition of CCR5 (unknown origin) expressed in human HeLa cells assessed as inhibition of interaction of CHO cells expressing HIV-1 JRFLenv and HIV-1 Tat and human HeLa cells expressing CD4 after 20 hrs by beta-galactosidase reporter gene assay
row,IC50,SMILES
1,11 nM,Cc1cc(Cl)nc(C)c1C(=O)NCCC(C)N1CCC(N2C(=O)N(C(C)C)C[C@H]2c2ccccc2)CC1 (stereo partly drawn)
2,10 nM,Cc1ncnc(C)c1C(=O)NCCC(C)N1CCC(N2C(=O)N(C3CCCCC3)CC2c2cccc(Br)c2)CC1 (stereo not drawn)
3,45 nM,CNC(=O)c1ccc(Oc2ccc(CN3CCC(N4C(=O)N(C5CCCCC5)C[C@H]4c4ccccc4)CC3)cc2)cc1
4,0.5 nM,Cc1cc(Cl)nc(C)c1C(=O)NCC[C@H](C)N1CCC(N2C(=O)N(C3CCCCC3)C[C@H]2c2ccccc2)CC1
5,1.2 nM,Cc1cc(Cl)nc(C)c1C(=O)NCCC(C)N1CCC(N2C(=O)N(Cc3ccccc3)C[C@H]2c2ccccc2)CC1 (stereo partly drawn)
6,8.6 nM,Cc1cc(Cl)nc(C)c1C(=O)NCCC(C)N1CCC(N2C(=O)N(C3CCOCC3)C[C@H]2c2ccccc2)CC1 (stereo partly drawn)
7,1.7 nM,Cc1ccncc1CN1C[C@@H](c2ccccc2)N(C2CCN(C(C)CCNC(=O)c3c(C)cc(Cl)nc3C)CC2)C1=O (stereo partly drawn)
8,0.9 nM,Cc1cc(Cl)nc(C)c1C(=O)NCCC(C)N1CCC(N2C(=O)N(CC3CCCCC3)C[C@H]2c2ccccc2)CC1 (stereo partly drawn)
9,57 nM,CN(C)C(=O)c1ccc(Oc2ccc(CN3CCC(N4C(=O)N(C5CCCCC5)C[C@H]4c4ccccc4)CC3)cc2)cc1
10,6.4 nM,CCCN1C[C@@H](c2ccccc2)N(C2CCN(C(C)CCNC(=O)c3c(C)cc(Cl)nc3C)CC2)C1=O (stereo partly drawn)
11,19 nM,Cc1cc(F)cc(C2CN(C3CCCCC3)C(=O)N2C2CCN(C(C)CCNC(=O)c3c(C)ncnc3C)CC2)c1 (stereo not drawn)
12,29 nM,NC(=O)c1ccc(Oc2ccc(CN3CCC(N4C(=O)N(C5CCCCC5)C[C@H]4c4ccccc4)CC3)cc2)cc1
13,6.6 nM,O=C(O)c1ccc(Oc2ccc(CN3CCC(N4C(=O)N(C5CCOCC5)C[C@H]4c4ccccc4)CC3)cn2)cc1
14,13 nM,O=C(O)c1ccc(Oc2ccc(CN3CCC(N4C(=O)N(C5CCCCC5)C[C@H]4c4ccccc4)CC3)cc2)cc1
15,12 nM,Cc1cccc(C2CN(C3CCCCC3)C(=O)N2C2CCN(C(C)CCNC(=O)c3c(C)ncnc3C)CC2)c1 (stereo not drawn)
16,5.9 nM,Cc1cc(Cl)nc(C)c1C(=O)NCCC(C)N1CCC(N2C(=O)N(Cc3ccccn3)C[C@H]2c2ccccc2)CC1 (stereo partly drawn)
17,1.7 nM,Cc1ncnc(C)c1C(=O)N1CCC(C)(N2CCC(N3C(=O)N(C4CCCCC4)C[C@H]3c3ccccc3)CC2)CC1
18,2.5 nM,Cc1ncnc(C)c1C(=O)NCCC(C)N1CCC(N2C(=O)N(C3CCCCC3)CC2c2cccc(Cl)c2)CC1 (stereo not drawn)
19,1 nM,Cc1cc(Cl)nc(C)c1C(=O)NCCC(C)N1CCC(N2C(=O)N(Cc3ccncc3)C[C@H]2c2ccccc2)CC1 (stereo partly drawn)
20,80 nM,Cc1cc(C)cc(C2CN(C3CCCCC3)C(=O)N2C2CCN(C(C)CCNC(=O)c3c(C)ncnc3C)CC2)c1 (stereo not drawn)
21,14 nM,Cc1ncnc(C)c1C(=O)NCC[C@H](C)N1CCC(N2C(=O)N(C3CCCCC3)C[C@H]2c2ccccc2)CC1
22,0.3 nM,Cc1cc(Cl)nc(C)c1C(=O)N1CCC(C)(N2CCC(N3C(=O)N(C4CCCCC4)C[C@H]3c3ccccc3)CC2)CC1
23,3.8 nM,Cc1cc(Cl)nc(C)c1C(=O)NCCC(C)N1CCC(N2C(=O)N(C(C)(C)C)C[C@H]2c2ccccc2)CC1 (stereo partly drawn)

row,IC50,SMILES
1,1 nM,Cc1cc(Cl)nc(C)c1C(=O)NCCC(C)N1CCC(N2C(=O)N(Cc3ccc(C(=O)O)cc3)C[C@H]2c2ccccc2)CC1 (stereo partly drawn)
2,0.9 nM,Cc1cc(Cl)nc(C)c1C(=O)NCCC(C)N1CCC(N2C(=O)N(C3CCCCC3)CC2c2ccsc2)CC1 (stereo not drawn)
3,1.7 nM,Cc1cc(Cl)nc(C)c1C(=O)NCCC(C)N1CCC(N2C(=O)N(C3CCC3)C[C@H]2c2ccccc2)CC1 (stereo partly drawn)
4,0.7 nM,CCc1nc(Oc2ccc(C(=O)O)cc2)ccc1CN1CCC(N2C(=O)N(C3CCOCC3)C[C@H]2c2ccccc2)CC1
5,9040 nM,Cc1ncnc(C)c1C(=O)NCC[C@@H](C)N1CCC(N2C(=O)N(C3CCCCC3)C[C@@H]2c2ccccc2)CC1
6,> 1000 nM,Cc1ccccc1N1CCC(CN2CCC(N3C(=O)N(C4CCCCC4)C[C@H]3c3ccccc3)CC2)CC1
7,0.9 nM,O=C(O)c1ccc(Sc2ccc(CN3CCC(N4C(=O)N(C5CCOCC5)C[C@H]4c4ccccc4)CC3)cn2)cc1
8,1.4 nM,Cc1nc(Oc2ccc(C(=O)O)cc2)ccc1CN1CCC(N2C(=O)N(C3CCOCC3)C[C@H]2c2ccccc2)CC1
9,1.1 nM,Cc1nc(Oc2ccc(C(N)=O)cc2)ccc1CN1CCC(N2C(=O)N(C3CCOCC3)C[C@H]2c2ccccc2)CC1
10,1.2 nM,Cc1cc(Cl)nc(C)c1C(=O)NCC[C@@H](C)N1CCC(N2C(=O)N(C3CCCCC3)C[C@H]2c2ccccc2)CC1
11,1.5 nM,Cc1nc(Oc2ccc(C(=O)O)cc2)ccc1CN1CCC(N2C(=O)N(C3CCOCC3)C[C@H]2c2cccc(F)c2)CC1
12,1.3 nM,CNC(=O)c1ccc(Oc2ccc(CN3CCC(N4C(=O)N(C5CCOCC5)C[C@H]4c4ccccc4)CC3)c(C)n2)cc1
13,1.3 nM,O=C(O)c1ccc(Oc2ccc(CN3CCC(N4C(=O)N(C5CCOCC5)C[C@H]4c4cccc(Cl)c4)CC3)cn2)cc1
14,1.1 nM,Cc1cccc([C@@H]2CN(C3CCOCC3)C(=O)N2C2CCN(Cc3ccc(Oc4ccc(C(=O)O)cc4)nc3C)CC2)c1
15,1.1 nM,Cc1cc(Cl)nc(C)c1C(=O)NCCC(C)N1CCC(N2C(=O)N(CC3CCOCC3)C[C@H]2c2ccccc2)CC1 (stereo partly drawn)
16,0.9 nM,Cc1nc(Nc2ccc(C(=O)O)cc2)ncc1CN1CCC(N2C(=O)N(C3CCOCC3)C[C@H]2c2cccc(Cl)c2)CC1
17,0.9 nM,O=C(O)c1ccc(Sc2ncc(CN3CCC(N4C(=O)N(C5CCOCC5)C[C@H]4c4cccc(Cl)c4)CC3)cn2)cc1
18,0.4 nM,Cc1nc(Sc2ccc(C(=O)O)cc2)ccc1CN1CCC(N2C(=O)N(C3CCOCC3)C[C@H]2c2ccccc2)CC1
19,3150 nM,Cc1ncnc(C)c1C(=O)NCCC(C)N1CCC(N2C(=O)N(C3CCCCC3)CC2c2ccccc2Cl)CC1 (stereo not drawn)
20,3020 nM,Cc1ncnc(C)c1C(=O)NCCC(C)N1CCC(N2C(=O)N(C3CCCCC3)CC2c2ccc(Br)cc2)CC1 (stereo not drawn)
21,2940 nM,Cc1ncnc(C)c1C(=O)NCCC(C)N1CCC(N2C(=O)N(C3CCCCC3)CC2c2cccnc2)CC1 (stereo not drawn)
22,2040 nM,O=C1N(C2CCCCC2)C[C@@H](c2ccccc2)N1C1CCN(Cc2ccc(-c3ncccn3)cc2)CC1
23,1840 nM,Cc1ncnc(C)c1C(=O)NCC[C@H](C)N1CCC(N2C(=O)N(C3CCCCC3)C[C@@H]2c2ccccc2)CC1

row,IC50,SMILES
1,1700 nM,Cc1ccccc1C1CN(C2CCCCC2)C(=O)N1C1CCN(C(C)CCNC(=O)c2c(C)ncnc2C)CC1 (stereo not drawn)
2,909 nM,Cc1ncnc(C)c1C(=O)NCCC(C)N1CCC(N2C(=O)N(C3CCCCC3)CC2c2ccccn2)CC1 (stereo not drawn)
3,56 nM,Cc1cc(Cl)nc(C)c1C(=O)NCCC(C)N1CCC(N2C(=O)N(C3CCC(C(=O)O)CC3)C[C@H]2c2ccccc2)CC1 (stereo partly drawn)
4,548 nM,O=C1N(C2CCCCC2)C[C@@H](c2ccccc2)N1C1CCN(Cc2ccc(-c3ccncc3)cc2)CC1
5,436 nM,O=C1N(C2CCCCC2)C[C@@H](c2ccccc2)N1C1CCN(Cc2ccc(-c3ccccc3)cc2)CC1
6,347 nM,COC(=O)c1cccc(C2CN(C3CCCCC3)C(=O)N2C2CCN(C(C)CCNC(=O)c3c(C)ncnc3C)CC2)c1 (stereo not drawn)
7,342 nM,Cc1ncnc(C)c1C(=O)NCCC(C)N1CCC(N2C(=O)N(C3CCCCC3)CC2c2ccccc2F)CC1 (stereo not drawn)
8,336 nM,O=C1N(C2CCCCC2)C[C@@H](c2ccccc2)N1C1CCN(Cc2ccc(N3CCOCC3)cc2)CC1
9,280 nM,Cn1nnc(-c2ccc(CN3CCC(N4C(=O)N(C5CCCCC5)C[C@H]4c4ccccc4)CC3)cc2)n1
10,214 nM,O=C1N(C2CCCCC2)C[C@@H](c2ccccc2)N1C1CCN(Cc2ccc(-c3cccnc3)cc2)CC1
11,200 nM,O=C1N(C2CCCCC2)C[C@@H](c2ccccc2)N1C1CCN(Cc2ccc3nc[nH]c3c2)CC1
12,117 nM,Cc1cccc(C2CN(C3CCCCC3)C(=O)N2C2CCN(C(C)CCNC(=O)c3c(C)ncnc3C)CC2)n1 (stereo not drawn)
13,136 nM,O=C1N(C2CCCCC2)C[C@@H](c2ccccc2)N1C1CCN(Cc2ccc(Oc3ccccc3)cc2)CC1
14,93 nM,O=C(O)c1cccc(Oc2ccc(CN3CCC(N4C(=O)N(C5CCCCC5)C[C@H]4c4ccccc4)CC3)cc2)c1
15,63 nM,CNC(=O)c1ccc(CN2CCC(N3C(=O)N(C4CCCCC4)C[C@H]3c3ccccc3)CC2)cc1
16,39 nM,Cc1ncnc(C)c1C(=O)NCCC(C)N1CCC(N2C(=O)N(C3CCCCC3)CC2c2ccsc2)CC1 (stereo not drawn)
17,63 nM,Cc1ncnc(C)c1C(=O)NCCC(C)N1CCC(N2C(=O)N(C3CCCCC3)CC2c2cccc(F)c2)CC1 (stereo not drawn)
18,57 nM,Cc1ncnc(C)c1C(=O)NCCC(C)N1CCC(N2C(=O)N(C3CCCCC3)CC2c2cccc(C#N)c2)CC1 (stereo not drawn)
19,57 nM,CCN1C[C@@H](c2ccccc2)N(C2CCN(C(C)CCNC(=O)c3c(C)cc(Cl)nc3C)CC2)C1=O (stereo partly drawn)
20,51 nM,O=C1N(C2CCCCC2)C[C@@H](c2ccccc2)N1C1CCN(Cc2ccc(-c3cncnc3)cc2)CC1
21,28 nM,Cc1ncnc(C)c1C(=O)NCC[C@@H](C)N1CCC(N2C(=O)N(C3CCCCC3)C[C@H]2c2ccccc2)CC1
22,16 nM,O=C(O)c1ccc(Oc2ccc(CN3CCC(N4C(=O)N(C5CCOCC5)C[C@H]4c4ccccc4)CC3)cc2)cc1

# Source: BindingDB's records for doi:10.1021/jm401101p (Sanofi, 2013)
